Experimental data from patent US20180185408A1, “ANTIFUNGAL NYLON-3 POLYMERS AND COMBINATION THERAPY USING THEM TO TREAT FUNGAL INFECTIONS” (priority 2016, published 2018).
Values after ≈ are worked out from the molar mass of the structure shown. Values joined by “and” are separate entries in the source; they are usually repeats but may differ in a detail not shown here. Equal entries are not always repeated.

Legend:
Saccharomyces cerevisiae = assay: MIC100 against yeast (CLSI M27-A3); assay type: cell-based; settings: Saccharomyces cerevisiae W303
C. krusei = assay: MIC100 against yeast (CLSI M27-A3); assay type: cell-based, Candida krusei
C. auris = assay: MIC100 against yeast (CLSI M27-A3); assay type: cell-based, Candida auris; settings: Candidozyma auris
[1] = test system: human red blood cells (hRBCs); assay: Hemolysis assay; settings: 1 hour
Trichophyton rubrum = assay: MIC100 against dermatophytes (modified CLSI M38-A); assay type: cell-based; settings: ATCC28188; Trichophyton rubrum isolate ATCC 28188
Method: (§1) The final group of fungi tested for sensitivity to nylon-3 polymers were dermatophytes. In contrast to the other filamentous fungi tested, three of these isolates were evaluated following a modified version of the CLSI M38-A methodology (using hyphal fragments in liquid culture, because of difficulties in obtaining conidia). […] Mixed efficacy of the nylon-3 polymers was observed across the four species of dermatophytes tested. […] The activity against P. destructans, the causative agent of White Nose syndrome in bats, and just one of many emerging fungal pathogens threatening wildlife is encouraging because there are few options at present for preventing the spread of this devastating pathogen. The facility with which nylon-3 polymers can be modified could provide opportunities for the development of topical agents with high specificity for particular fungi.

Aspergillus species = assay: MIC100 against 18 species of the Aspergillus genus; assay type: cell-based, Aspergillus spp.
Text: (§2) We assessed the antifungal activity of MM-TM, DM-TM, and NM against 18 different species within the genus Aspergillus.

Aspergillus fumigatus [2] = assay: microbe, parasite or virus in culture
A. flavus = assay: MIC100 against species of the Aspergillus genus; assay type: cell-based; settings: Aspergillus flavus isolate NRRL3357
Text: as §2

Aspergillus fumigatus [3] = assay: Checkerboard microdilution synergy (FIC); assay type: cell-based; settings: for MIC: Aspergillus fumigatus
[4] = test system: Pseudogymnoascus destructans; assay: MIC100 against dermatophytes (conidia, 12°C, seven days); assay type: cell-based; settings: Pseudogymnoascus destructans isolate ATC MYA-4855
Method: as §1

[5] = MM:TM with Itraconazole, isolate F11628 (Resistance), […] 10^5 cells/mL
[6] = MM:TM with Itraconazole, isolate F16216 (Resistance), […] 10^5 cells/mL
[7] = MM:TM with ITRA, isolate 08-12-12-13 Cyp51 [TR34/L98H], Avg., 48 hours, 35° C.
[8] = MM:TM with ITRA, isolate 08-19-02-61 Cyp51 [TR34/L98H], Avg., 48 hours, 35° C.
[9] = MM:TM with ITRA, isolate 08-31-08-91 Cyp51 [TR34/L98H], Avg., 48 hours, 35° C.
[10] = MM:TM with ITRA, isolate 08-36-03-25 Cyp51 [TR34/L98H], Avg., 48 hours, 35° C.
[11] = MM:TM with ITRA, isolate 12-7505220 Cyp51 [TR34/L98H], Avg, 48 hours, 35° C.
[12] = MM:TM with ITRA, isolate 12-7505446 Cyp51 [TR34/L98H], Avg., 48 hours, 35° C.
[13] = MM:TM with ITRA, isolate D5 Cyp51 [G54E], Avg., 48 hours, 35° C.
[14] = MM:TM with ITRA, isolate D6 Cyp51 [G54V], Avg., 48 hours, 35° C.
[15] = MM:TM with ITRA, isolate D9 Cyp51 [M220K], Avg., 48 hours, 35° C.

OC(Cn1cncn1)(Cn1cncn1)c1ccc(F)cc1F [FLC, fluconazole]
MIC50 (Saccharomyces cerevisiae): < 1 µg/mL | polymer efficacy against budding yeasts, 50% (C. krusei; C. krusei QC, CLSI QC isolate for susceptibility testing): 32 | MIC50 (C. krusei; Pichia kudriavzevii, Candida krusei QC): 32 µg/mL (≈ 104 µM) | MIC50 (C. auris; Candida auris B11220): 4 µg/mL (≈ 13.1 µM) | MIC50 (C. auris; Candida auris C54039, Resistance AmB): 16 µg/mL (≈ 52.2 µM)

C[C@@H]1[C@H](O)[C@@H](C)/C=C/C=C/C=C/C=C/C=C/C=C/C=C/[C@H](O[C@@H]2O[C@H](C)[C@@H](O)[C@H](N)[C@@H]2O)C[C@@H]2O[C@](O)(C[C@@H](O)C[C@@H](O)[C@H](O)CC[C@@H](O)C[C@@H](O)CC(=O)O[C@H]1C)C[C@H](O)[C@H]2C(=O)O [AMB, amphotericin B]
concentration causing 10% hemolysis (HC10) [1]: 27 µM | concentration causing 50% lysis of hRBCs (HC50) [1]: 54 µM

CCC(C)n1ncn(-c2ccc(N3CCN(c4ccc(OCC5COC(Cn6cncn6)(c6ccc(Cl)cc6Cl)O5)cc4)CC3)cc2)c1=O (stereo not shown) [Itraconazole, itraconazole]
MIC (Trichophyton rubrum): 1 µg/mL (≈ 1.42 µM) | MIC (Aspergillus species; Aspergillus aculeatus isolate CBS 172.66): < 1 µg/mL | MIC (Aspergillus species; Aspergillus brasiliensis isolate CBS 101740): 64 µg/mL (≈ 90.7 µM) | MIC (Aspergillus species; Aspergillus carbonarius isolate DT0115-B6): < 1 µg/mL | MIC (Aspergillus species; Aspergillus clavatus isolate CBS 513.65): 64 µg/mL (≈ 90.7 µM) | MIC (Aspergillus species; Aspergillus fumigatus isolate CEA10): < 1 µg/mL | MIC (Aspergillus species; Aspergillus glaucus isolate CBS 516.65): 2 µg/mL (≈ 2.83 µM) | MIC (Aspergillus species; Aspergillus nidulans isolate FGSCA4): < 1 µg/mL | MIC (Aspergillus species; Aspergillus niger isolate CBS 113.46): < 1 µg/mL | MIC (Aspergillus species; Aspergillus oryzae isolate Rib40): 1 µg/mL (≈ 1.42 µM) | MIC (Aspergillus species; Aspergillus parasiticus isolate Su-1): < 1 µg/mL | MIC (Aspergillus species; Aspergillus sydowii isolate CBS 593.65): 2 µg/mL (≈ 2.83 µM) | MIC (Aspergillus species; Aspergillus terreus isolate NCCB IH2626): < 1 µg/mL | MIC (Aspergillus species; Aspergillus versicolor isolate CBS 795.97): 1 µg/mL (≈ 1.42 µM) | MIC (Aspergillus species; Aspergillus wentii isolate DT0136-E9): < 1 µg/mL | MIC (Aspergillus species; Aspergillus zonatus isolate CBS 506.65): < 1 µg/mL | MIC (Aspergillus species; Neosartorya fischeri isolate CBS 544.65): > 8 µg/mL | MIC (Aspergillus fumigatus [2]; 48 h, A. fumigatus AF293, visually, 1 × 10^5 cells/mL, 35° C.): 1 µg/mL and 1.4 µM | MIC (Aspergillus fumigatus [2]; 48 h, A. fumigatus CEA10, visually, 1 × 10^5 cells/mL, 35° C.): > 1 µg/mL and > 1.4 µM | MIC (Aspergillus fumigatus [2]; 48 h, A. fumigatus F11628, visually, 1 × 10^5 cells/mL, 35° C.): 48 µg/mL and 68.5 µM | MIC (Aspergillus fumigatus [2]; 48 h, A. fumigatus F16216, visually, 1 × 10^5 cells/mL, 35° C.): 32 µg/mL and 45.3 µM | MIC (Aspergillus fumigatus [2]; A. fumigatus AF293): 1.4 µM (≈ 0.988 µg/mL) | MIC (Aspergillus fumigatus [2]; A. fumigatus CEA10): > 1.4 µM | MIC (Aspergillus fumigatus [2]; A. fumigatus F11628): 68 µM (≈ 48 µg/mL) | MIC (Aspergillus fumigatus [2]; A. fumigatus F16216): 45.3 µM (≈ 32 µg/mL) | MIC (Aspergillus fumigatus [2]; azole resistant strain F11628): > 45 µM | MIC (Aspergillus fumigatus [2]; strain F16216): 45.3 µM (≈ 32 µg/mL) | MIC (A. flavus): < 1 µg/mL | MIC azole combination (Aspergillus fumigatus [3]; 08-19-02-61 Cyp51 [TR34/L98H], ITRA in combination with MM:TM, OD600, 48 h, 35° C.): >48 µg/mL and 48 µg/mL | FICazole (Aspergillus fumigatus [3]; 08-19-02-61 Cyp51 [TR34/L98H], ITRA with MM:TM): 1.000 and 0.500 | MIC azole combination (Aspergillus fumigatus [3]; 08-31-08-91 Cyp51 [TR34/L98H], ITRA in combination with MM:TM, OD600, 48 h, 35° C.): >48 µg/mL | FICazole (Aspergillus fumigatus [3]; 08-31-08-91 Cyp51 [TR34/L98H], ITRA with MM:TM): 1.000 | MIC azole combination (Aspergillus fumigatus [3]; 08-36-03-25 Cyp51 [TR34/L98H], ITRA in combination with MM:TM, OD600, 48 h, 35° C.): >48 µg/mL | FICazole (Aspergillus fumigatus [3]; 08-36-03-25 Cyp51 [TR34/L98H], ITRA with MM:TM): 1.000 | FICazole (Aspergillus fumigatus [3]; AF293, ITRA with MM:TM): 0.143 and 0.198 and 0.210 | MIC (Aspergillus fumigatus [3]; 48 h, CEA10, ITRA as single agent, 35° C.): > 1 µg/mL | MIC (Aspergillus fumigatus [3]; 48 h, CEA10, MM:TM with Itraconazole, single agent, 48 h, read-out: MIC Alone): > 1.4 µM | MIC (Aspergillus fumigatus [3]; 48 h, F11628, ITRA as single agent, 35° C.): 48 µg/mL | MIC (Aspergillus fumigatus [3]; 48 h, F16216, ITRA as single agent, 35° C.): 32 µg/mL | MIC (Aspergillus fumigatus [3]; 48 h, MM:TM with ITRA, […], Avg., 48 hours, 35° C.): 1.06 µM | MIC (Aspergillus fumigatus [3]; [5]): 48 µg/mL | MIC (Aspergillus fumigatus [3]; [6]): 32 µg/mL | MIC Combined (Aspergillus fumigatus [3]; CEA10, MM:TM with Itraconazole in combination, 48 h): 0.3 µM | MIC azole combination (Aspergillus fumigatus [3]; D5 Cyp51 [G54E], ITRA in combination with MM:TM, OD600, 48 h, 35° C.): >48 µg/mL | FICazole (Aspergillus fumigatus [3]; D5 Cyp51 [G54E], ITRA with MM:TM): 1.000 | MIC azole combination (Aspergillus fumigatus [3]; D7 Cyp51 [WT], ITRA in combination with MM:TM, OD600, 48 h, 35° C.): 0.19 µg/mL and 0.375 µg/mL | FICazole (Aspergillus fumigatus [3]; D7 Cyp51 [WT], ITRA with MM:TM): 0.253 and 0.500 | MIC azole combination (Aspergillus fumigatus [3]; D9 Cyp51 [M220K], ITRA in combination with MM:TM, OD600, 48 h, 35° C.): >48 µg/mL | FICazole (Aspergillus fumigatus [3]; D9 Cyp51 [M220K], ITRA with MM:TM): 1.000 | MIC azole combination (Aspergillus fumigatus [3]; F11628, ITRA in combination with MM:TM, OD600, 48 h, 35° C.): 1.06 µM | MIC azole combination (Aspergillus fumigatus [3]; F16216, ITRA in combination with MM:TM, OD600, 48 h, 35° C.): 85.03 µM | FICazole (Aspergillus fumigatus [3]; F16216, ITRA with MM:TM): 0.750 and 1.000 and 0.938 | MIC azole combination (Aspergillus fumigatus [3]; MM:TM with ITRA, […], Avg., 48 hours, 35° C.): 0.4 µM | FICazole (Aspergillus fumigatus [3]; [7]): 0.917 | MIC azole combination (Aspergillus fumigatus [3]; [7]): 70.15 µM | FICazole (Aspergillus fumigatus [3]; [8]): 0.75 | MIC azole combination (Aspergillus fumigatus [3]; [8]): 102.04 µM | FICazole (Aspergillus fumigatus [3]; [9]): 1.000 | MIC azole combination (Aspergillus fumigatus [3]; [9]): >68.02 µM | FICazole (Aspergillus fumigatus [3]; [10]): 1.000 | MIC azole combination (Aspergillus fumigatus [3]; [10]): >68.02 µM | FICazole (Aspergillus fumigatus [3]; [11]): 0.917 | MIC azole combination (Aspergillus fumigatus [3]; [11]): 70.15 µM | FICazole (Aspergillus fumigatus [3]; [12]): 0.035 | MIC azole combination (Aspergillus fumigatus [3]; [12]): 0.67 µM | FICazole (Aspergillus fumigatus [3]; [13]): 1.000 | MIC azole combination (Aspergillus fumigatus [3]; [13]): >68.02 µM | FICazole (Aspergillus fumigatus [3]; [14]): 0.172 | MIC azole combination (Aspergillus fumigatus [3]; [14]): 18.96 µM | FICazole (Aspergillus fumigatus [3]; [15]): 1.000 | MIC azole combination (Aspergillus fumigatus [3]; [15]): >68.02 µM | FICazole (Aspergillus fumigatus [3]; [5]): 0.008 | FICazole (Aspergillus fumigatus [3]; [6]): 1.000 | increase in efficacy in the presence of MM:TM (Aspergillus fumigatus [3]; azole-resistant strain F11628): > 100 fold | MIC [4]: 0.13 µg/mL (≈ 0.184 µM)
